Reference: patent publication US7507716B2, “Method for treating pain with prolactin antagonists” (Board of Regents, The University of Texas System, priority 2005, dated 2009)
Where a chain is given by its changes, count along the chain named. Numbers in names are those of the source.

Tests used:
TG neurons [1] = experiment: PRL release from cultured TG neurons (RIA); format: cell-based, rat; details: 300 nM capsaicin or 25 mM KCl; for release of immunoreactive PRL: neurons from OVX rats cultured in the absence of E2; for PRL released from TG neurons: neurons of proestrous rats cultured with 50 nM E2, 15 min
Experimental: PRL is known to be released from cells of the anterior pituitary (Zacur et al. 1976) and from extrapituitary sites (Ben-Jonathan et al., 2002; Zinger et al., 2003; Torner et al., 2004). To determine whether PRL protein is present in a releasable pool in TG sensory neurons, cultured TG neurons derived either from proestrous rats (cultured in the presence of 50 nM E2) or from OVX rats (cultured without E2) were exposed to 300 nM capsaicin or 25 mM KCl buffer. The results obtained from these experiments are depicted in FIG. 2D, which indicate that a substantial amount of PRL is released from TG neurons of proestrous rats cultured in the presence of E2 upon stimulation with either capsaicin (158±12% of vehicle) or KCL (154±16% of vehicle). […] Data are presented as mean % of basal release±SEM (n=6/group, *=p<0.05 and **=p<0.01; one-way ANOVA with Bonferroni's post hoc test).
Rat trigeminal ganglia (TG) primary cultures: The TG from ovariectomized or intact female rats were quickly removed after decapitation and neuronal cultures were prepared as previously described (Fehrenbacher et al., 2005; Patwardhan et al., 2005). The trypsin treatment was omitted in TG cultures prepared for electrophysiological recording and Ca^2+ imaging. Cells were plated on 24 well Poly-D-Lysine coated plates (for iCGRP experiments), 6 well Poly-D-Lysine plates (for PRL release experiments), Poly-D-Lysine/laminin-coated coverslips (for single cell studies) or 10 cm plates (for phosphorylation experiments), respectively. The TG cultures were maintained at 37° C. and 5% CO2. […] The media were replaced at the end of 24 h and then 48 h later.
PRL Release Experiments: These experiments were performed at day 5 with TG cultures from OVX or intact female rats using Krebs buffer (NaCl 135 mM, KCl 3.5 mM, MgCl2 1 mM, NaH2PO4 1 mM, CaCl2 2.5 mM, BSA 0.1%, dextrose 3.3 mM, ascorbic acid 0.1 mM, HEPES 10 mM, thiorphan 16 μM; pH 7.4). After two initial washes, a 15 min baseline sample was collected. Cells were then exposed to 300 nM capsaicin (Sigma) or 25 mM KCl and incubated at 37° C. for an additional 15 min followed by collection of the samples. The 1 ml collected samples were lyophilized and resuspended in 250 ul of water and immediately frozen in −80° C. Frozen samples were sent to Dr. A. F. Parlow (NHPP, Harbor-UCLA) to have levels of PRL determined by a well-validated radioimmunoassay (RIA) with sensitivity range from 1-100 ng/ml. Results are representative of 6 independent experiments.

[2] = Plasma estradiol levels after s.c. estradiol benzoate; format: in vivo, rat; details: OVX rats, mean±SEM
PRL-R [3] = molecular target: T1, PRL-R (Rattus norvegicus, UniProt P05710); experiment: Calcium imaging, block of PRL potentiation by PRL-R antagonist; format: cell-based; details: for block of PRL potentiation of capsaicin-evoked Ca2+ influx: antagonist 800 nM co-treated with PRL 40 nM, capsaicin 30 nM
T1 construct: endogenous in cells; host or cells: primary rat trigeminal ganglion neurons
T1 sequence (P05710 20-610): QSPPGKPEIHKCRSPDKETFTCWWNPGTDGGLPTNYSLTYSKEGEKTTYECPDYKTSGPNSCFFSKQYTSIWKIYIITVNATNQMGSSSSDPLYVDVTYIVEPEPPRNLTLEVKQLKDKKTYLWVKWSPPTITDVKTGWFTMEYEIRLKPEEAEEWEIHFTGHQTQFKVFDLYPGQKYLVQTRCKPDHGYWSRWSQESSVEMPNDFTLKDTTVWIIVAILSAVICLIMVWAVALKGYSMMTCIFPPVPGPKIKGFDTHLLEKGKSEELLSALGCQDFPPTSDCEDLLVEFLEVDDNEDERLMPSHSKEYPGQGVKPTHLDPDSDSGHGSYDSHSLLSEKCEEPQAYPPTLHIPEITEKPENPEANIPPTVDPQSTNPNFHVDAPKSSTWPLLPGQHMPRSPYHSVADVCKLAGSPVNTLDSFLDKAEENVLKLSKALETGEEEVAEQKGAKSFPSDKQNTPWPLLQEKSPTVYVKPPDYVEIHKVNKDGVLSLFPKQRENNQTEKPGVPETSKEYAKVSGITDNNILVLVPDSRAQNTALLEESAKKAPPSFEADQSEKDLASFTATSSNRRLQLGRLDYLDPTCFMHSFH
Experimental: To determine whether PRL augmentation of capsaicin responses occurs through the PRL-R (i.e., whether PRL-signaling could account for the observed effects of PRL on nociceptors sensitization), Ca^2+ imaging experiments were performed on neurons in the presence of a molar excess of a full PRL-R antagonist (Δ 1-9-G129R-hPRL) (Bernichtein et al., 2003; Goffin et al., 2005). Cultured neurons were treated as described in the previous experiment. In addition, neurons were co-treated with PRL and the PRL-R antagonist 1-9-Δ-G 129R-hPRL (800 nM). […] Data are presented as mean % of vehicle±SEM (n=19-40, *=p<0.05; two-way ANOVA).
Calcium Imaging: TG cells cultured on coverslips were loaded with the cell-permeable calcium sensitive dye FURA 2-AM (1 ug/ml) (Molecular Probes, Eugene, Oreg.) for 30 min at 37° C. in Standard External Solution (SES) of the following composition in mM: 140 NaCl, 5 KCl, 2 CaCl2, 1 MgCl2, 10 glucose and 10 HEPES, pH 7.4. Coverslips containing cells were placed in a chamber with constant infusion of SES. Images were captured by a Nikon Eclipse TE-2000 microscope fitted with a 20×/NA 0.75 Fluor objective. Fluorescence images were collected in 5 sec intervals throughout the experiment, analyzed, and the F340/F380 ratio calculated by the Methafluor Software (MethaMorph, Web Universal Imaging Corporation, Downingtown, Pa.). Capsaicin was delivered locally to the cells, whereas PRL was delivered into the bath solution. The magnitude of calcium influx was determined by subtracting the averaged baseline 30 sec prior to the capsaicin stimulus from the peak achieved by the capsaicin stimulation for each cell (ratiometric method, ΔF340/F380).

TG neurons [4] = experiment: Patch clamp, capsaicin-induced currents (Icap); format: cell-based, rat
Experimental: Since application of PRL rapidly increases capsaicin-induced calcium accumulation and neuropeptide release, the role of PRL in modulating capsaicin-induced currents (Icap) was examined. TRPV1 desensitization of cultured TG neurons was induced through the repeated application of 100 nM capsaicin to the cultures (Vellani et al., 2001; Bonnington and McNaughton, 2003). The sub-maximal concentration of capsaicin used was effective in inducing desensitization and permitted the investigation PRL-evoked re-sensitization or further sensitization of TRPV1. […] Data are presented as mean±SEM of PRL-treated ΔIcap (3rd Icap-2^ndIcap) normalized to vehicle treated ΔIcap, (n=8-12/group, *=p<0.05 and **=p<0.01; two-way ANOVA). […] Acutely dissociated TG neurons from female rats were locally pretreated with vehicle or PRL (40 nM) for 60 sec, washed for 60 sec and subjected to a single capsaicin pulse (40 sec, 0.1 nM-5 μM). Data are shown as mean±SEM (n=12-20/group, *=p<0.05 and ***=p<0.001 vehicle vs. PRL; two-way ANOVA). FIGS. 5C and 5D depict representative traces of Icap recordings from intact (FIG. 5C) and OVX (FIG. 5D) female rat TG neurons. Concentration of applied CAP and PRL are indicated. The duration CAP and PRL treatment was 30 sec and 60 sec, respectively. The magnitude of the second capsaicin-evoked inward currents (Icap) peak was subtracted from the third Icap peak to calculate the difference (ΔIcap). Data were normalized to the vehicle treated ΔIcap.
(§1) Patch Clamp Electrophysiology: All recordings were performed in whole-cell voltage-clamp (Vh=−60 mV) configuration. Recordings were acquired at 22-24° C. from the somata of neurons (15-45 pF) using an Axopatch200B amplifier and pCLAMP9.0 software (Axon Instruments, Union City, Calif.). Data were filtered at 0.5 kHz and sampled at 2 kHz. Borosilicate pipettes (Sutter, Novato, Calif.) were polished to resistances of 3-5 MΩ in pipette solution. Access resistance was compensated (40-80%) to 7-10 MΩ values when appropriate. Cell diameters were calculated using d=√[100*Cm/π], where d (μm) is cell diameter and Cm (pF) is membrane capacitance.
Standard external solution (SES) had the composition as described above. […] Drugs were applied using a fast, computer controlled pressure-driven 8-channel system (ValveLink8; AutoMate Scientific, San Francisco, Calif.).
FIG. 11B summarizes the effect of adding rhPRL on Icap of cultured TG neurons from male, female and OVX female rats. Number of recorded neurons and neurons in which effects were observed are indicated above the bars. The recordings were performed in whole-cell voltage clamp c(Vh=−60 mV) configuration. Solutions are SES and SIS.

PRL-R [5] = molecular target: T1, PRL-R; experiment: Patch clamp Icap, G129R-PRL against PRL sensitization; format: cell-based
Experimental: as §1
Since it is possible that this effect is observed only in full PRL-R antagonists, it is of interest to determine the effectiveness of partial PRL-R antagonists in blocking PRL-mediated nociceptor sensitization. To this end, the ability of the partial PRL […] (G129R-PRL) to inhibit PRL-induced increase in sensitivity to capsaicin was assessed. FIG. 10 summarizes the effect of administering PRL, human G129R-PRL, or their combination, on Icap. G129R-PRL acts as either a partial or full antagonist, depending on the cellular context of the experimental system (Goffin, Bernichtein et al. 2003).

Molecule: COc1cc(CNC(=O)CCCC/C=C/C(C)C)ccc1O [capsaicin]
- release of immunoreactive PRL (TG neurons [1]): no detectable release
- PRL released from TG neurons (TG neurons [1]): 158±12 % of vehicle

Molecule: [Cl-].[K+] [KCL, KCl]
- release of immunoreactive PRL (TG neurons [1]): no detectable release
- PRL released from TG neurons (TG neurons [1]): 154±16 % of vehicle

Molecule: C[C@]12CC[C@@H]3c4ccc(OC(=O)c5ccccc5)cc4CC[C@H]3[C@@H]1CC[C@@H]2O [17-beta-estradiol 3-benzoate]
- plasma estradiol levels ([2]; 2 μg/kg s.c. daily for 10 days): 1.89 ± 0.36 pg/mL
- plasma estradiol levels ([2]; 20 μg/kg s.c. daily for 10 days): 59 ± 17.1 pg/mL
- plasma estradiol levels ([2]; 80 μg/kg s.c. daily for 10 days): 110 ± 36.6 pg/mL

B1: Δ 1-9-G129R-hPRL: full PRL-R antagonist, human PRL variant synthesized as described (Bernichtein et al., 2003; Goffin et al., 2005) (protein)
chain: LPICPGGAARCQVTLRDLFDRAVVLSHYIHNLSSEMFSEFDKRYTHGRGFITKAINSCHTSSLATPEDKEQAQQMNQKDFLSLIVSILRSWNEPLYHLVTEVRGMQEAPEAILSKAVEIEEQTKRLLERMELIVSQVHPETKENEIYPVWSGLPSLQMADEESRLSAYYNLLHCLRRDSHKIDNYLKLLKCRIIHNNNC
- effect of antagonist on its own on capsaicin-evoked Ca2+ influx (PRL-R [3]; 800 nM, without PRL): had no effect on its own
- block of PRL potentiation of capsaicin-evoked Ca2+ influx (PRL-R [3]): significantly blocked PRL potentiation of capsaicin-evoked Ca^2+ influx
- block of PRL potentiation of capsaicin-evoked Ca2+ influx (PRL-R [3]; listed as 1-9-Δ-G129R-hPRL): significantly blocked

B2: rhPRL: recombinant human PRL (protein, UniProt P01236 29-227, looked up)
Prolactin: B1 chain with R129G
- sensitization of capsaicin-evoked Icap (TG neurons [4]; cultured TG neurons from male and female rats, capsaicin 100 nM (FIG. 11A)): is able to sensitize cultured neurons isolated from male and female TG neurons
- concentration dependence of Icap increase (TG neurons [4]; male and female TG neurons, varying rhPRL concentrations): dose-dependent increases in Icap

B3: G129R-PRL: human prolactin variant, partial or full PRL-R antagonist / partial agonist; sequence in FIG. 9B (SEQ ID NO: 48) (protein, listed as Homo sapiens)
chain: B1 chain
- effect on Icap in the absence of rPRL (PRL-R [5]; 3 of 3 examined neurons): displayed partial agonist effects
- reduction of the PRL effect on Icap (PRL-R [5]; G129R-PRL 16 nM co-applied with rPRL 4 nM, observed in 6 of 7 neurons): about 40%
